# Measured values published in ChEMBL document CHEMBL4196010, “New hydrazides derivatives of isoniazid against Mycobacterium tuberculosis: Higher potency and lower hepatocytotoxicity” (Eur J Med Chem, 2018).
# What was measured:
# Format in all cases: functional
# [1] = tested on: Mycobacterium tuberculosis; assay: Antitubercular activity against Mycobacterium tuberculosis SR 2571/0215 harboring katG mutant after 5 days by microplate alamar blue assay
# [2] = tested on: Mycobacterium tuberculosis; assay: Antitubercular activity against isoniazid and rifampicin-resistant Mycobacterium tuberculosis T113/09 harboring katG and rpoB mutant after 5 days by microplate alamar blue assay
# [3] = tested on: Mycobacterium tuberculosis; assay: Antitubercular activity against wild-type isoniazid-resistant Mycobacterium tuberculosis harboring katG mutant after 5 days by microplate alamar blue assay
SMILES,MIC [1],MIC [2],MIC [3]
CC(=O)Nc1ccc(C)cc1C(F)(F)C(=O)NNC(=O)c1ccncc1,>276.2 µM,276.2 µM,138.1 µM
NNC(=O)c1ccncc1 [ISONIAZID],116.8 µM,58.4 µM,>80 µM
CC(=O)Nc1ccc(Cl)cc1C(F)(F)C(=O)NNC(=O)c1ccncc1,–,–,136.6 µM
CC(=O)Nc1ccc(F)cc1C(F)(F)C(=O)NNC(=O)c1ccncc1,–,–,130.9 µM
CC(=O)Nc1ccc(C)cc1C(=O)C(=O)NNC(=O)c1ccncc1,36.7 µM,36.7 µM,–
CC(=O)Nc1ccccc1C(=O)C(=O)NNC(=O)c1ccncc1,38.3 µM,38.3 µM,19.2 µM
O=C(CCl)Nc1ccccc1C(=O)C(=O)NNC(=O)c1ccncc1,69.4 µM,34.7 µM,–
CC(=O)Nc1ccccc1C(F)(F)C(=O)NNC(=O)c1ccncc1,287.4 µM,287.4 µM,143.7 µM
